According to patent publication US6818391B2, “Glutamate transporters” (The Regents of the University of California, priority 2000, dated 2004):

Molecular target: T1, BNPI (VGLUT1) (Rattus norvegicus, UniProt Q62634)
T1 construct: expressed in transfected cells; light membranes prepared from them
T1 sequence (Q62634 1-560): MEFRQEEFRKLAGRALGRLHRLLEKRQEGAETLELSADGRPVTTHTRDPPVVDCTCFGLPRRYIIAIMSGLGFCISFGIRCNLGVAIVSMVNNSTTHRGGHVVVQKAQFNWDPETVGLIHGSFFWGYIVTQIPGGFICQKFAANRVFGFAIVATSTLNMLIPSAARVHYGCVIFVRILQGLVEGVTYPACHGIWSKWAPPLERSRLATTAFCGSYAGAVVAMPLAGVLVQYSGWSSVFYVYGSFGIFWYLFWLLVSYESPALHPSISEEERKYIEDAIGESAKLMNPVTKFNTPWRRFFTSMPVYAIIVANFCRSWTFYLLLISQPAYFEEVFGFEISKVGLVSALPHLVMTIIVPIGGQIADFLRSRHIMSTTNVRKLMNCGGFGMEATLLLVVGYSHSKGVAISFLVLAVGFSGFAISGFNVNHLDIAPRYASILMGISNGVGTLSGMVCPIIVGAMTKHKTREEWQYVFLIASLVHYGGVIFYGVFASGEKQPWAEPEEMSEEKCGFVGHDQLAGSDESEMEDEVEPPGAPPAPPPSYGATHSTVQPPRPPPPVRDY
Experiment: 3H-glutamate uptake by membranes from PC12 cells expressing BNPI
Assay type: biochemical
Settings: for inhibition of 3H-glutamate uptake by membranes expressing BNPI: 10 mM, uptake at 5 min
Excerpt: Rather, the type I transporter NaPi-1 transports organic anions, including phenol red and penicillin G, with substantially higher apparent affinity than Pi (Busch et al. (1996) Proc. Natl. Acad. Sci., USA, 93: 5347). Human genetic studies have shown that mutations in another protein closely related to BNPI and NaPi-1 account for disorders of sialic acid storage (Verheijen et al. (1999) Nature Genet. 23: 462). In these conditions, sialic acid accumulates in lysosomes because of a defect in proton-driven export (Renlund et al. (1986) Science 232: 759; Mancini et al. (1989) J. Biol. Chem. 264: 15247; Tietze et al. (1989) J. Biol. Chem. 264: 15316; Mancini et al. (1992) Proc. Natl. Acad. Sci., USA, 89: 6609). […] To determine whether BNPI mediates the transport of glutamate into synaptic vesicles, we transfected the rat BNPI cDNA into rat pheochromocytoma PC12 cells, which lack detectable endogenous BNPI protein. The rat BNPI cDNA was stably expressed in PC12 cells, and immunofluorescence for BNPI was used to identify the most highly expressing cell clones. Membranes were prepared by homogenizing the washed cells in SH buffer [0.32 M sucrose and 10 mM Hepes-KOH (pH 7.4)] containing protease inhibitors and by pelleting the nuclei at 1000 g for 5 min and the heavier membranes at 27,000 g for 35 min. The supernatant containing lighter membranes was then pelleted at 210,000 g for 1 hour and resuspended in SH buffer with protease inhibitors at a final concentration of ˜10 μg protein/μl.
We then prepared a population of light membranes, including synaptic-like microvesicles, from the transfected and untransfected cells (McIntire et al. (1997) Nature 389: 870) and tested their ability to accumulate 3H-glutamate in the presence of 4 mM chloride and ATP, conditions that optimize glutamate accumulation by native synaptic vesicles (Maycox et al. (1988) J. Biol. Chem., 263: 15423; Carlson et al. […] J. Biol. Chem. 264: 7369). To initiate the transport reaction, we added 10 μl of membranes to 190 μl of SH buffer containing 4 mM KCl, 4 mM MgSO4, 4 mM ATP, and 50 μM 3H-glutamate, with other additions noted in the text and figure legends. The reaction mixture was incubated at 29° C. for varying times, and the uptake was terminated by rapid filtration, followed by immediate washes with 6 ml of cold 0.155 M potassium tartrate and 10 mM Hepes (pH 7.4). Background uptake was determined using membranes prepared from untransfected cells that were incubated for the same amount of time at the same temperature. Transport measurements were performed in duplicate with at least two different preparations of membranes. The Km was calculated by averaging the results of two separate determinations.

`N[C@@H](CCC(=O)O)C(=O)O` [L-Glutamate] was tested, and the “inhibition of 3H-glutamate uptake by membranes expressing BNPI” value was “markedly inhibits”, the “inhibition of 3H-glutamate uptake by membranes expressing BNPI” value (listed as L-glutamate) was “inhibited the uptake” and the Km (initial rate at 1 min, Lineweaver-Burke, untransfected background subtracted, read-out: Km of glutamate transport by BNPI) was roughly 2 mM.
With `Cl` [chloride] the “3H-glutamate uptake by BNPI at non-optimal chloride” value (0 and 25 mM chloride) was “much less activity detected”.
